# According to ChEMBL document CHEMBL2016455, “5-Benzothiazole substituted pyrimidine derivatives as HCV replication (replicase) inhibitors” (Bioorg Med Chem Lett, 2012):
# What was measured:
# [1] = system: Hepatitis C virus; assay: Antiviral activity against Hepatitis C virus isolate con1 1b infected in human hepatoma cells replicon cells after 3 days by RT-PCR analysis; type: functional, organism-based, Hepacivirus hominis, genotype 1b Con1
# [2] = AUC (0 to 6 hrs) in rat at 10 mg/kg, po; type: ADME, organism-based; parameters: time < 6 hr, dose 10 mg/kg, route oral; conditions: plasma
# [3] = system: Liver; assay: Drug uptake in rat liver per mg tissue at 10 mg/kg, po after 6 hrs; type: ADME, organism-based; parameters: dose 10 mg/kg, route oral; conditions: in vivo
# [4] = Cytotoxicity against human hepatoma cells after 3 days by MTS assay; type: cell-based; conditions: for CC50 at 72 h: human hepatoma cells
# [5] = Cytotoxicity against human hepatoma cells assessed as decrease in RNA level after 3 days by RT-PCR analysis; type: cell-based; conditions: for CC50 at 72 h: human hepatoma cells
# [6] = AUC (0 to 24 hrs) in rat at 10 mg/kg, po; type: ADME, organism-based; parameters: time < 24 hr, dose 10 mg/kg, route oral; conditions: plasma
# [7] = AUC (0 to 24 hrs) in rat at 2 mg/kg, iv and 10 mg/kg, po; type: ADME, organism-based; conditions: plasma
# [8] = Oral bioavailability in rat at 10 mg/kg; type: ADME, organism-based; conditions: in vivo
# [9] = AUC (0 to 24 hrs) in monkey at 1 mg/kg, iv and 3 mg/kg, po; type: ADME, organism-based, Macaca mulatta; conditions: rhesus monkey, plasma
# [10] = Oral bioavailability in monkey at 3 mg/kg; type: ADME, organism-based, Macaca mulatta; conditions: rhesus monkey, in vivo
# [11] = AUC (0 to 24 hrs) in dog at 1 mg/kg, iv and 3 mg/kg, po; type: ADME, organism-based, Canis lupus familiaris; conditions: plasma
# [12] = Oral bioavailability in dog at 3 mg/kg; type: ADME, organism-based, Canis lupus familiaris; conditions: in vivo
# [13] = target: Cytochrome P450 2D6 (Homo sapiens, UniProt P10635); assay: Inhibition of CYP2D6; type: ADME
# [14] = target: Cytochrome P450 3A4 (Homo sapiens, UniProt P08684); assay: Inhibition of CYP3A4; type: ADME
# [15] = target: Cytochrome P450 2C9 (Homo sapiens, UniProt P11712); assay: Inhibition of CYP2C9; type: ADME
# [16] = Selectivity ratio of CC50 for human hepatoma cells to EC50 for Hepatitis C virus isolate con1 1b; type: ADME; conditions: read-out: Ratio CC50/EC50
# [17] = Drug uptake in rat liver at 10 mg/kg, po after 4 hrs; type: ADME, organism-based; parameters: dose 10 mg/kg, route oral; conditions: read-out: Drug uptake
# [18] = Hepatitis C virus, genotype 1b Con1, 72 h
# Sequence of Cytochrome P450 2D6 (P10635 whole entry): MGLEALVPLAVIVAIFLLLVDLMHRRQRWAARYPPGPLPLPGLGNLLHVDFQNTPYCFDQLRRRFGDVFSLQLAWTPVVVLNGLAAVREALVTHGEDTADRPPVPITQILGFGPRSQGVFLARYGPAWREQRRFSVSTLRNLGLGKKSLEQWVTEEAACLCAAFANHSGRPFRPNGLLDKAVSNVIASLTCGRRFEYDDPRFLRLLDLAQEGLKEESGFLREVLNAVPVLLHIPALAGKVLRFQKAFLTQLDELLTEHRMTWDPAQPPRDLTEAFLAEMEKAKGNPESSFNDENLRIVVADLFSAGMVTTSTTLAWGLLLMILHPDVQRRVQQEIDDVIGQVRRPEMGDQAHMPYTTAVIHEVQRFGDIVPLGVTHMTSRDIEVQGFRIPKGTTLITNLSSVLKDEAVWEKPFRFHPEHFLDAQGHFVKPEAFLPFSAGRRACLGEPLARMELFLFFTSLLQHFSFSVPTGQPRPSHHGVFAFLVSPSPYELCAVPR
# Sequence of Cytochrome P450 3A4 (P08684 whole entry): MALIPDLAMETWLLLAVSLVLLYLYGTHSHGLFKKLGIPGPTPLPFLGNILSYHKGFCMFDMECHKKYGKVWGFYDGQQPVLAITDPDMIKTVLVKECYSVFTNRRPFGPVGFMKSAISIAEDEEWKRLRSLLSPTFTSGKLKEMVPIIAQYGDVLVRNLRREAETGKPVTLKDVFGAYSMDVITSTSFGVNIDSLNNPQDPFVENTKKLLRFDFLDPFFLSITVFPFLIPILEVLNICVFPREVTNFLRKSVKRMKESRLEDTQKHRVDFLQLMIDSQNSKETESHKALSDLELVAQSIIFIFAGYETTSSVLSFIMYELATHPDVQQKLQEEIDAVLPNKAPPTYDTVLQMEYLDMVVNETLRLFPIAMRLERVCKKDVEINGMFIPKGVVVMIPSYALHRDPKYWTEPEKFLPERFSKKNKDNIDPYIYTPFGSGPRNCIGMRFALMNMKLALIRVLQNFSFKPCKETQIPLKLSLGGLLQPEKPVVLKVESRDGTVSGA
# Sequence of Cytochrome P450 2C9 (P11712 whole entry): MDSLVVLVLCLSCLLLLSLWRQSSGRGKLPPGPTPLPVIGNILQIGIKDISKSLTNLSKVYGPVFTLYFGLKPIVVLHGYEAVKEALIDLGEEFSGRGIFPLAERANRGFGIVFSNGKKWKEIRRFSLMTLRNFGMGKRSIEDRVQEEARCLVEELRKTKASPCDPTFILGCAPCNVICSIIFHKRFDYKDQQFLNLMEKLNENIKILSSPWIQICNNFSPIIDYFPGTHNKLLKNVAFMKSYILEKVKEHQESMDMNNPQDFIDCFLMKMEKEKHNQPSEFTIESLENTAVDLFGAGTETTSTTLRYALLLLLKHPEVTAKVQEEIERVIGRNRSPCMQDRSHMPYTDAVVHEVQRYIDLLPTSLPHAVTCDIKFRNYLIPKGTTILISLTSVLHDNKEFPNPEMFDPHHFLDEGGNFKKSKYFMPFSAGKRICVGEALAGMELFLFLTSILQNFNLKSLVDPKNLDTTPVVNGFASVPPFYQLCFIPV
Compound,"EC50 [1, 18] [µM]",AUC(0-t) at 6 h [2] [µM·h],Drug uptake [3] [ng/g],CC50 at 72 h [4] [µM],CC50 at 72 h [5] [µM],other results
Cc1nc(NC(C)(C)C)nc(N[C@@H]2C[C@H](CO)[C@@H](O)[C@H]2O)c1-c1nc2ccccc2s1,0.09,5,1240,13,12,
Nc1ncc(-c2nc3ccccc3s2)c(N[C@@H]2C[C@H](CO)[C@@H](O)[C@H]2O)n1,0.2,0.4,250,> 25,> 25,
CNc1nc(C)c(-c2nc3ccccc3s2)c(N[C@@H]2C[C@H](CO)[C@@H](O)[C@H]2O)n1,0.05,2.7,75,> 25,> 25,
CCNc1nc(C)c(-c2nc3ccccc3s2)c(N[C@@H]2C[C@H](CO)[C@@H](O)[C@H]2O)n1,0.1,6.2,515,> 25,12,
Cc1nc(NC(C)C)nc(N[C@@H]2C[C@H](CO)[C@@H](O)[C@H]2O)c1-c1nc2ccccc2s1,0.16,19.6,3320,14,13,
Cc1nc(N(C)C)nc(N[C@@H]2C[C@H](CO)[C@@H](O)[C@H]2O)c1-c1nc2ccccc2s1,0.14,,1030,16,18,AUC(0-t) at 24 h [6]: 11 µM·h
Cc1nc(NCC(F)(F)F)nc(N[C@@H]2C[C@H](CO)[C@@H](O)[C@H]2O)c1-c1nc2ccccc2s1.Cl,,,,,,EC50 [1]: 0.03 µM; AUC(0-t) [7]: 7 µM·h; bioavailability [8]: 82%; CC50 ([4]; 72 h): 17 µM; AUC(0-t) [9]: 0.3 µM·h; bioavailability [10]: 8%; AUC(0-t) [11]: 7.8 µM·h; bioavailability [12]: 35%; INH [13]: > 20 µM; INH [14]: > 20 µM; INH [15]: > 20 µM; CC50 ([5]; 72 h): 25 µM; selectivity ratio [16]: > 550
Cc1nc(NCC(F)(F)F)nc(N[C@@H]2C[C@H](CO)[C@@H](O)[C@H]2O)c1-c1nc2ccccc2s1,,,,> 25,> 25,EC50 [1]: 0.8 µM; AUC(0-t) at 24 h [6]: 7 µM·h; concentration at 4 h [17]: 8420 ng/g
